The values that follow come from patent US6455593B1, “Method of dynamic retardation of cell cycle kinetics to potentiate cell damage” (priority 1995, dated 2002).

The conditions of series [1]: cited from earlier work.
Series [2] concerns U937 cells. The experiment in a line: Bivariate flow cytometry, dUTP terminal transferase labelling of DNA strand breaks. It counts as cell-based, human. The protocol:
In a more sophisticated use of flow cytometry, DNA strand breaks were detected in nuclei by means of terminal transferase and homopolymer tailing as described by Gorczyca W. et al., Cancer Res 53:1945-1951 (1993). Samples of 1×10^6 cells were fixed in 1% buffered formaldehyde at 0° C. for 5 minutes, washed with PBS, resuspended in 70% ethanol and stored at […] for 48 hours. Cells were rehydrated in PBS, then suspended in 100 μl of cacodylate buffer and 2.5 mM CoCI2 to prepare them for the terminal transferase reaction. Biotin-labelled 16-dUTP and terminal transferase (Boehringer Mannheim, GmbH) were added to provide the final concentration of […] and 500 units/ml, respectively, and reacted with the cells at 37° C. for 30 minutes. Cells were rinsed in PBS, resuspended in a 4×saline-citrate buffer with 0.1% triton X100, 5% (w/v) non-fat powdered milk and 2.5 μg/ml FITC-labelled avidin, Boehringer Mannheim, supra, and incubated at room temperature for 30 minutes. Excess avidin-FITC was removed by washing the cells with PBS containing 0.1% triton X-100. In the cells with DNA damage, biotin-labelled dUTP was localized by the avidin-FITC: avidin and biotin form a strong linkage and reveal the extent of dUTP homopolymer tailing.
The amount of DNA per cell reflects the cell cycle position of each cell.
(A flow cytometer gives signals particle by particle.)

The subject of series [3] is U937 cells. The series can be described thus: Delayed proliferation assay (MTT 48 hr after washing). As to the method: Microcultures treated with an agent or agents for a defined period (exactly as in Example 8) were washed. Seventy-five percent of the well volume was removed without disturbing the sedimented cells, and medium was added to yield a ⅕ dilution. In three additional washes and cell sedimentations, 50% of the medium was replaced such that the original concentration of agents was reduced to <5%. The metabolic mass of cells surviving or proliferating at 48 hr after the washings, including the untreated control cells, was then assayed by the MTT method (total elapsed time of 70 hours).
As an adjunct to the delayed proliferative assay, we utilized an “immediate plate” to quantitate the cell mass at the beginning of the experiment (N0=original cell mass). It required no more than a single column of microwells filled with 50 μl of growth medium each, and aliquots of cells in 50 μl identical to those transferred to the usual “test plate”. The immediate plate was incubated at 37° C. to complete the MTT assay for the same time as used for the test plate (i.e. 3 hr).
Taking the mean final cell mass at 70 hours as N, each data point represents a ratio of the mean cell mass of dThd-treated cells as fraction of N/N0. A ratio of N/N0=1 indicates no change in original cell mass (i.e. no growth of the targeted population). A ratio of N/N0>1 indicates overall growth of the targeted population. A ratio of N/N0<1 indicates overall population loss (cell killing).
Taking the mean final cell mass at 70 hours as N, positive percentages represent the % effective cytotoxicity (EC%) expressed as 1−N/N0 and converted to a percentage, in relation to concentration. Thus, EC obtained only for ratios of N/N0<1 (i.e. positive percentages).

Series [4] concerns human malignant lymphoma cells (U937). The series can be described thus: Clonogenic assay in methylcellulose. It counts as cell-based. An excerpt:
Elimination of a targeted cell population by a cytotoxic agent or agent combinations can not be assured if cells with generative capacity survive. The clonogenic assay in soft agar or methylcellulose is a practical and useful means of determining long-term effects of cytotoxic agents on a malignant cell population, since malignant cells are often capable of growing and forming colonies in these media. The colony forming efficiency of any line or population of malignant cells must be established from the colony count in relationship to the inoculum number and varies over a wide range. […] (same protocol as Example 2A, Table 7). Methylcellulose (MC) solution 2.1-2.3% was obtained from Stem Cell Technologies in Vancouver, B.C. and made up in a series of sterile tubes: (a) 0.4 ml MC stock solution, (b) 50 μl of NuSerum, (c) 2×10^4 cells from the treated cell suspension from the 24-well plate (about 250 μl) and (d) complete growth medium to make a final volume of 1 ml (final cell density=about 2×10^4 cells). A syringe with 18 g. needle was used to transfer load 100 μl of each sample the final cell preparation to each of triplicate wells in a 96-well plate. Thus the final cell number was about 2,000 cells/well. Plates were examined daily for colony formation. At days 3-5, colonies were counted. and colonies were overlaid with MTT: 25 μl, incubated overnight at 37° C. and 100 μl of 4% formalin was added to aid visualization and photography. […] The effective cytotoxicity was calculated as 1−C/C0 where C=the number of colonies formed by a sample of treated cells and C0=the number of colonies formed by an equal sample of untreated cells.

The test system of series [5] is U937 cells. The series can be described thus: DNA gel electrophoresis for DNA fragmentation (apoptosis). It counts as cell-based, human. The protocol:
Samples of the U937 cells were exposed to a series of concentrations of dThd for 24 hr. Their DNA was isolated by lysis of cell samples in TE buffer containing TRIS 10 mM, EDTA 10 mM, SDS 0.5% and proteinase K 200 μg/ml at […] for 2 h. The proteins were precipitated in a IM solution of NaCl and centrifuged at 2,500×g for 30 min at […] DNAse free RNase (25 μg/ml) was added to the supernatant and incubated for 30 min at 37° C. Spectrophotometric quantitation of the DNA in the supernatant was quantitated by absorbance spectrophotometry at 260 nm. Volumes adjusted to contain equal amounts of DNA were mixed with a loading buffer of 40% (w/v) sucrose, 0.1M EDTA pH 8.0, 0.5% (w/v) sodium lauryl sulphate and 0.05% (w/v) bromophenol blue. […] Separated bands of DNA were stained with ethidium bromide and photographed in UV light (Fotodyne Inc.). […] The lowest molecular weight (about 180 bp) was determined with a standard 123 bp ladder from Sigma Chemical Co. (Cat. #D5042). The result shown is a classical “DNA ladder,” characteristic of the fragmentation of DNA macromolecules in apoptosis. See Tomei, supra; Obeid, supra; Gold, supra.

Setting [6] is: Homo sapiens, U-937, 96 h, read-out: Maximum effective cytotoxicity (1-C/C0), clonogenic.

Take `C[C@@]1(CO)[C@H](O)CC[C@@]2(C)[C@H]1CC[C@H]1C[C@@H]3C[C@@]12CC[C@]3(O)CO` [Aph, aphidicolin]: the Peak plasma levels in series [1] (continuous infusion, minimal toxicity) is 3 µg/mL.
In the case of `CN[C@@H]1C[C@H]2O[C@@](C)([C@@H]1OC)n1c3ccccc3c3c4c(c5c6ccccc6n2c5c31)C(=O)NC4` [STSP, staurosporine], the “dUTP labelling (DNA fragmentation)” value in the series with U937 cells [2] (4 hours of 0.2 mM dThd followed by 25 nM STSP for additional 7 hours) was “marked increase in the number of dUTP labelled cells”. For the same compound, the “Effective cytotoxicity (1-N/N0)” value in the series on U937 cells [3] (13 nM STSP in the presence of 0.5 mM dThd, 70 hours) was “about 85%”; in the series with U937 cells [3] (25 nM STSP in the presence of 0.1 mM dThd, 70 hours), “about 85%”. Besides, in series [4] (setting [6]), the Emax at 0.02 µM lay in the range of 40 to 60%. Further, the “Effective cytotoxicity, clonogenic” value in series [4] (optimal synergistic match of dThd and STSP, 96 hours) is “almost total cytotoxicity”. Also, in the series with U937 cells [5] (50 nM STSP, 8 hours, U937), the “DNA ladder pattern fragmentation” value was “DNA fragmentation in U937 cells in 8 hours”.
Regarding `Cc1cn([C@H]2C[C@H](O)[C@@H](CO)O2)c(=O)[nH]c1=O` [dThd, deoxythymidine], in series [1] (human subjects, oral doses), the “Blood (plasma) levels achieved” value is given as “up to 6 mM”. Further, the “dUTP labelling (DNA fragmentation)” value with U937 cells [2] (3 mM dThd, 11 hours) is “appearance of cells with dUTP labelling, indicating DNA fragmentation”. For the same compound, the “Effect on cell growth” value in the series with U937 cells [3] (0.1 mM dThd alone, FIG. 20) is “minimal effect on cell growth as compared to controls”. For the same compound, in the series on U937 cells [3] (dThd alone, 70 hours), the “Concentration for effective cytotoxicity of 40% (EC40)” value is “More than 3 mM”. The Emax at 100 µM in series [4] (setting [6]) lay within 40 to 60%. In addition, the DNA fragmentation entry with U937 cells [5] (3 mM dThd, cell cycle arrest) is recorded as “pronounced DNA fragmentation”. In addition, the “dThd concentration giving fragmentation of DNA” value with U937 cells [5] (U937, 24 hr, FIG. 8) was more than 0.5 mM.
